{"source": "ChEMBL document CHEMBL1614632", "about": "“Trend analysis of a database of intravenous pharmacokinetic parameters in humans for 670 drug compounds” (Drug Metab Dispos, 2008)", "key": {"clinical [1]": {"assay": "clinical", "settings": "human, in vivo, iv, Vdss"}, "clinical [2]": {"assay": "clinical", "settings": "human, in vivo, iv"}, "clinical [3]": {"assay": "clinical", "settings": "human, in vivo, iv, t1/2"}, "clinical [4]": {"assay": "clinical", "settings": "human, in vivo, iv", "remark": "listed apart in the source"}, "clinical [5]": {"assay": "clinical", "settings": "human, in vivo, iv, CL"}}, "data": [{"smiles": "COc1ccc(C[C@@H]2c3cc(OC)c(OC)cc3CC[N@+]2(C)CCC(=O)OCCCCCOC(=O)CC[N@@+]2(C)CCc3cc(OC)c(OC)cc3[C@H]2Cc2ccc(OC)c(OC)c2)cc1OC", "values": [{"measurement": "Vd", "setting": "clinical [1]", "result": 0.14, "unit": "L/kg"}, {"measurement": "fraction unbound", "setting": "clinical [2]", "result": 0.62}, {"measurement": "half-life", "setting": "clinical [3]", "result": 0.42, "unit": "h"}, {"measurement": "MRT", "setting": "clinical [4]", "result": 0.43, "unit": "h"}, {"measurement": "clearance", "setting": "clinical [5]", "result": 5.4, "unit": "mL/min/kg"}]}, {"smiles": "CN[C@@H]1C[C@H]2O[C@@](C)([C@@H]1OC)n1c3ccccc3c3c4c(c5c6ccccc6n2c5c31)C(=O)N[C@@H]4O", "values": [{"measurement": "Vd", "setting": "clinical [1]", "result": 0.15, "unit": "L/kg"}, {"measurement": "fraction unbound", "setting": "clinical [2]", "result": 0.0022}, {"measurement": "half-life", "setting": "clinical [3]", "result": 790, "unit": "h"}, {"measurement": "MRT", "setting": "clinical [4]", "result": 680, "unit": "h"}, {"measurement": "clearance", "setting": "clinical [5]", "result": 0.0037, "unit": "mL/min/kg"}]}, {"smiles": "C[C@@H](O)[C@H]1C(=O)N2C(C(=O)O)=C(S[C@@H]3CN[C@H](C(=O)Nc4cccc(C(=O)O)c4)C3)[C@H](C)[C@H]12", "values": [{"measurement": "Vd", "setting": "clinical [1]", "result": 0.12, "unit": "L/kg"}, {"measurement": "fraction unbound", "setting": "clinical [2]", "result": 0.1}, {"measurement": "half-life", "setting": "clinical [3]", "result": 3.8, "unit": "h"}, {"measurement": "MRT", "setting": "clinical [4]", "result": 4.4, "unit": "h"}, {"measurement": "clearance", "setting": "clinical [5]", "result": 0.45, "unit": "mL/min/kg"}]}, {"smiles": "COc1ccc(CC2c3cc(OC)c(OC)cc3CC[N+]2(C)CCC(=O)OCCCCCOC(=O)CC[N+]2(C)CCc3cc(OC)c(OC)cc3C2Cc2ccc(OC)c(OC)c2)cc1OC", "note": "(stereo unspecified)", "values": [{"measurement": "Vd", "setting": "clinical [1]", "result": 0.1, "unit": "L/kg"}, {"measurement": "fraction unbound", "setting": "clinical [2]", "result": 0.52}, {"measurement": "half-life", "setting": "clinical [3]", "result": 0.31, "unit": "h"}, {"measurement": "MRT", "setting": "clinical [4]", "result": 0.29, "unit": "h"}, {"measurement": "clearance", "setting": "clinical [5]", "result": 5.7, "unit": "mL/min/kg"}]}, {"smiles": "CN(C)C(=O)CCS[C@H](SCCC(=O)O)c1cccc(/C=C/c2ccc3ccc(Cl)cc3n2)c1", "values": [{"measurement": "Vd", "setting": "clinical [1]", "result": 0.11, "unit": "L/kg"}, {"measurement": "fraction unbound", "setting": "clinical [2]", "result": 0.0004}, {"measurement": "half-life", "setting": "clinical [3]", "result": 2.3, "unit": "h"}, {"measurement": "MRT", "setting": "clinical [4]", "result": 2.7, "unit": "h"}, {"measurement": "clearance", "setting": "clinical [5]", "result": 0.68, "unit": "mL/min/kg"}]}, {"smiles": "CC[C@H](C)C[C@H](C)CCCCCCCCC(=O)N[C@H]1C[C@@H](O)[C@@H](NCCN)NC(=O)[C@@H]2[C@@H](O)CCN2C(=O)[C@H]([C@H](O)CCN)NC(=O)[C@H]([C@H](O)[C@@H](O)c2ccc(O)cc2)NC(=O)[C@@H]2C[C@@H](O)CN2C(=O)[C@H]([C@@H](C)O)NC1=O", "note": "[CASPOFUNGIN]", "values": [{"measurement": "Vd", "setting": "clinical [1]", "result": 0.13, "unit": "L/kg"}, {"measurement": "fraction unbound", "setting": "clinical [2]", "result": 0.035}, {"measurement": "MRT", "setting": "clinical [4]", "result": 15, "unit": "h"}, {"measurement": "clearance", "setting": "clinical [5]", "result": 0.14, "unit": "mL/min/kg"}]}, {"smiles": "CC(C)(O/N=C(\\C(=O)N[C@@H]1C(=O)N2C(C(=O)[O-])=C(C[n+]3ccccc3)CS[C@H]12)c1csc(N)n1)C(=O)O", "note": "[CEFTAZIDIME]", "values": [{"measurement": "Vd", "setting": "clinical [1]", "result": 0.31, "unit": "L/kg"}, {"measurement": "fraction unbound", "setting": "clinical [2]", "result": 0.79}, {"measurement": "MRT", "setting": "clinical [4]", "result": 2.2, "unit": "h"}, {"measurement": "clearance", "setting": "clinical [5]", "result": 2.4, "unit": "mL/min/kg"}]}, {"smiles": "C[C@H]1O[C@@H](O[C@H]2[C@@H](O)C[C@H](O[C@H]3[C@@H](O)C[C@H](O[C@H]4CC[C@@]5(C)[C@H](CC[C@@H]6[C@@H]5CC[C@]5(C)[C@@H](C7=CC(=O)OC7)CC[C@]65O)C4)O[C@@H]3C)O[C@@H]2C)C[C@H](O)[C@@H]1O", "note": "[DIGITOXIN]", "values": [{"measurement": "Vd", "setting": "clinical [1]", "result": 0.44, "unit": "L/kg"}, {"measurement": "fraction unbound", "setting": "clinical [2]", "result": 0.066}, {"measurement": "MRT", "setting": "clinical [4]", "result": 170, "unit": "h"}, {"measurement": "clearance", "setting": "clinical [5]", "result": 0.043, "unit": "mL/min/kg"}]}, {"smiles": "Cc1onc(-c2c(F)cccc2Cl)c1C(=O)N[C@@H]1C(=O)N2[C@@H]1SC(C)(C)[C@@H]2C(=O)O", "note": "[FLOXACILLIN]", "values": [{"measurement": "Vd", "setting": "clinical [1]", "result": 0.19, "unit": "L/kg"}, {"measurement": "fraction unbound", "setting": "clinical [2]", "result": 0.043}, {"measurement": "MRT", "setting": "clinical [4]", "result": 1.3, "unit": "h"}, {"measurement": "clearance", "setting": "clinical [5]", "result": 2.4, "unit": "mL/min/kg"}]}, {"smiles": "CC#CCC(C)[C@H](O)/C=C/[C@@H]1[C@H]2C/C(=C/CCCC(=O)O)C[C@H]2C[C@H]1O", "note": "(stereo partly specified) [ILOPROST]", "values": [{"measurement": "Vd", "setting": "clinical [1]", "result": 0.37, "unit": "L/kg"}, {"measurement": "fraction unbound", "setting": "clinical [2]", "result": 0.4}, {"measurement": "half-life", "setting": "clinical [3]", "result": 0.57, "unit": "h"}, {"measurement": "clearance", "setting": "clinical [5]", "result": 16, "unit": "mL/min/kg"}]}, {"smiles": "NNC(=O)c1ccncc1", "note": "[ISONIAZID]", "values": [{"measurement": "Vd", "setting": "clinical [1]", "result": 0.82, "unit": "L/kg"}, {"measurement": "fraction unbound", "setting": "clinical [2]", "result": 1}, {"measurement": "MRT", "setting": "clinical [4]", "result": 1.8, "unit": "h"}, {"measurement": "clearance", "setting": "clinical [5]", "result": 7.4, "unit": "mL/min/kg"}]}, {"smiles": "CC[C@H](OC(C)=O)C(C[C@H](C)N(C)C)(c1ccccc1)c1ccccc1", "note": "[LEVOMETHADYL ACETATE]", "values": [{"measurement": "Vd", "setting": "clinical [1]", "result": 8.3, "unit": "L/kg"}, {"measurement": "fraction unbound", "setting": "clinical [2]", "result": 0.2}, {"measurement": "MRT", "setting": "clinical [4]", "result": 26, "unit": "h"}, {"measurement": "clearance", "setting": "clinical [5]", "result": 5.4, "unit": "mL/min/kg"}]}, {"smiles": "COc1ccccc1Oc1c(NS(=O)(=O)c2ccc(C(C)C)cn2)nc(-c2ccnc(-c3nnn[nH]3)c2)nc1OCCO", "note": "[TEZOSENTAN]", "values": [{"measurement": "Vd", "setting": "clinical [1]", "result": 0.28, "unit": "L/kg"}, {"measurement": "fraction unbound", "setting": "clinical [2]", "result": 0.0085}, {"measurement": "half-life", "setting": "clinical [3]", "result": 3.8, "unit": "h"}, {"measurement": "clearance", "setting": "clinical [5]", "result": 8.1, "unit": "mL/min/kg"}]}, {"smiles": "Nc1n[n+]([O-])c2ccccc2[n+]1[O-]", "note": "[TIRAPAZAMINE]", "values": [{"measurement": "Vd", "setting": "clinical [1]", "result": 0.56, "unit": "L/kg"}, {"measurement": "fraction unbound", "setting": "clinical [2]", "result": 0.81}, {"measurement": "MRT", "setting": "clinical [4]", "result": 1, "unit": "h"}, {"measurement": "clearance", "setting": "clinical [5]", "result": 8.9, "unit": "mL/min/kg"}]}]}
